Source: patent US5126366A, “Aminophenoxyalkyl derivatives of benzodioxan” (American Home Products Corporation, priority 1991, dated 1992)
Where two headings read alike, the source gives them in different places.

How the values were obtained:
5-HT1A receptor = conditions: cited from earlier work
mouse locomotor activity = assay: Reduction of mouse locomotor activity (Martin and Bendensky); assay type: in vivo, mice (male, CF-1); conditions: horizontal activity counts 10 to 20 minutes after dosing; for ED50: ip, read-out: Hypolocomotion (ED50 mg/kg, ip)
dopamine D2 receptor = target: T1, dopamine D2 receptor (Rattus norvegicus, UniProt P61169); assay: Dopamine D2 receptor affinity, 3H-spiroperidol binding in homogenized limbic brain tissue
T1 construct: homogenized limbic brain tissue is incubated with ^3 H-spiroperidol; from tissue; host or cells: homogenized limbic brain tissue

[1] = target: T2, serotonin 5-HT1A receptor (Rattus norvegicus, UniProt P19327); assay: Serotonin 5-HT1A receptor affinity, displacement of [3H]8-OHDPAT; assay type: binding; conditions: for inhibition at 0.1 µM: read-out: Receptor Affinities 5-HT1A (% @ ( ) μM)
T2 construct: following the procedure of Hall et al., J. Neurochem; 44, 1685 (1985); from tissue
T2 sequence (P19327 1-422): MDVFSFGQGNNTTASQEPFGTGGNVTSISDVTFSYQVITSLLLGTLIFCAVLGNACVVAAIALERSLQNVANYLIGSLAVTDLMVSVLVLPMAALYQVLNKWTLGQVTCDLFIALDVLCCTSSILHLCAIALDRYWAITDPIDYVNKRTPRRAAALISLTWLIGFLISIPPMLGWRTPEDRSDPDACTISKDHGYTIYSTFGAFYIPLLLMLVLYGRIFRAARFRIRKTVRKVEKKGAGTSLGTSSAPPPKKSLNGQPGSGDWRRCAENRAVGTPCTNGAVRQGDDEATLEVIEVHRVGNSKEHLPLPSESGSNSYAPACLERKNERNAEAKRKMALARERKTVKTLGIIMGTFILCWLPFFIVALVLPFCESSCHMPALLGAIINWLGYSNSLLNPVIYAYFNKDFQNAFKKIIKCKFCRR
Description: Affinity for the serotonin 5-HT1A receptor was established by testing the claimed compound's ability to displace [^3 H]8-OHDPAT (dipropylaminotetralin) from the 5-HT1A serotonin receptor following the procedure of Hall et al., J. Neurochem. 44, 1685 (1985). […] The anxiolytic activity of buspirone is believed to be, at least partially, due to its 5-HT1A receptor affinity (Vander Maclen et al., Eur. J. Pharmacol. 1986, 129 (1-2) 133-[…]).

synthesis of dopamine = assay: Inhibition of dopa accumulation in GBL/NSD-1015-treated rats (dopamine autoreceptor agonism; Walters and Roth); assay type: in vivo, rats (male, Sprague-Dawley); conditions: sc, rat
Description: The effect of the compounds of the invention on the synthesis of dopamine was established by the method of Walters and Roth, Naunyn-Schmiedeberg's Arch. […] Following perchloric acid extraction of the tissue, the extracts were placed over alumina columns to collect and concentrate dopa and other catechols. This eluate was then subjected to HPLC analysis using electrochemical detection to quantify the levels of dopa present. Dopamine autoreceptor agonists, under the conditions used above, inhibit dopa accumulation.

[2] = limbic (L) brain tissue, read-out: Dopa Accumulation (% inhib. @ 10 mg/kg, sc), limbic (L)
[3] = striatal (S) brain tissue, read-out: Dopa Accumulation (% inhib. @ 10 mg/kg, sc), striatal (S)

T1 sequence (P61169 whole entry): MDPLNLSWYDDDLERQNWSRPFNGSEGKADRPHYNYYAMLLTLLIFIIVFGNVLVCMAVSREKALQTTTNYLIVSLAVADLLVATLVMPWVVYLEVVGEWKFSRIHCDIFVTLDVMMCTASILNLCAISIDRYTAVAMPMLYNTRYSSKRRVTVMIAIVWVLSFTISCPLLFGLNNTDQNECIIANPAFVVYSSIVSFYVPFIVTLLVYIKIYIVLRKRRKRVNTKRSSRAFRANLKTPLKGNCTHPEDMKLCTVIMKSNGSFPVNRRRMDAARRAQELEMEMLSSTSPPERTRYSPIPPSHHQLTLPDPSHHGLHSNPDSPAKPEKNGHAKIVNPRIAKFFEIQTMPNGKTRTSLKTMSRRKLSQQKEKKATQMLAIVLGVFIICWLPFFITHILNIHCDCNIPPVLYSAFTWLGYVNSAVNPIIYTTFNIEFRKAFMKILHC

O=C1CC2(CCCC2)CC(=O)N1CCCCNCC1COc2ccccc2O1 (single isomer, unassigned; (-)) [(-)-MDL 72832]
binding at the 5-HT1A receptor site relative to the dextrorotary isomer (5-HT1A receptor; (-)-isomer versus dextrorotary isomer, Fozard et al.): 32 times

Nc1cccc(OCCCNCC2COc3ccccc3O2)c1 (centres unmarked) [Example 1, N-[3-(3-Aminophenoxy)propyl]-2,3-dihydro-1,4-benzodioxin-2-methanamine]
ED50 (mouse locomotor activity): 0.38 mg/kg | IC50 (dopamine D2 receptor; read-out: Receptor Affinities D2 IC50): 525 nM | IC50 ([1]; read-out: Receptor Affinities 5-HT1A IC50): 4 nM | inhibition at 10 mg/kg (synthesis of dopamine; [2]): 33% | inhibition at 10 mg/kg (synthesis of dopamine; [3]): 46%

COc1cccc2c1OCC(CNCCCOc1cccc(N)c1)O2 (centres unmarked) [Example 2, N-[3-(3-Aminophenoxy)propyl]-2,3-dihydro-5-methoxy-1,4-benzodioxin-2-methanamine]
inhibition at 10 mg/kg (synthesis of dopamine; [2]): -22%

Nc1cccc(OCCCNCC2COc3ccc(O)cc3O2)c1 (centres unmarked) [Example 3, N-[3-(3-Aminophenoxy)propyl]-2,3-dihydro-7-hydroxy-1,4-benzodioxin-2-methanamine]
ED50 (mouse locomotor activity; Mus musculus): 0.16 mg/kg | Hypolocomotion (ED50 mg/kg, ip) (mouse locomotor activity): 0.15 mg/kg | inhibition at 10 mg/kg (synthesis of dopamine; [2]): 64% | inhibition at 10 mg/kg (synthesis of dopamine; [3]): 66%

Nc1cccc(OCCCNC[C@H]2COc3ccc(O)cc3O2)c1 [Example 4, (S)-N-[3-(3-Aminophenoxy)propyl]-2,3-dihydro-7-hydroxy-1,4-benzodioxin-2-methanamine]
ED50 (mouse locomotor activity; Mus musculus): 0.08 mg/kg | inhibition at 10 mg/kg (synthesis of dopamine; [2]): 70% | inhibition at 10 mg/kg (synthesis of dopamine; [3]): 71%

Nc1cccc(OCCCNCC2COc3cc(O)ccc3O2)c1 (centres unmarked) [Example 5, N-[3-(3-Aminophenoxy)propyl]-2,3-dihydro-6-hydroxy-1,4-benzodioxin-2-methanamine]
inhibition at 10 mg/kg (synthesis of dopamine; [2]): 31% | inhibition at 10 mg/kg (synthesis of dopamine; [3]): 30%

Nc1cccc(OCCCNCC2COc3c(O)cccc3O2)c1 (centres unmarked) [Example 6, N-[3-(3-Aminophenoxy)propyl]-2,3-dihydro-5-hydroxy-1,4-benzodioxin-2-methanamine]
inhibition at 10 mg/kg (synthesis of dopamine; [2]): 23% | inhibition at 10 mg/kg (synthesis of dopamine; [3]): 30%

Nc1cccc(OCCCNC[C@@H]2COc3ccc(O)cc3O2)c1 [Example 7, (R)-N-[3-(3-Aminophenoxy)propyl]-2,3-dihydro-7-hydroxy-1,4-benzodioxin-2-methanamine]
ED50 (mouse locomotor activity; Mus musculus): 1.34 mg/kg | inhibition at 10 mg/kg (synthesis of dopamine; [2]): 27% | inhibition at 10 mg/kg (synthesis of dopamine; [3]): 19%

COc1ccc2c(c1)OC(CNCCCOc1cccc(N)c1)CO2 (centres unmarked) [Example 8, N-[3-(3-Aminophenoxy)propyl]-2,3-dihydro-7-methoxy-1,4-benzodioxin-2-methanamine]
inhibition at 1 µM (dopamine D2 receptor; % at 1.0 μM, read-out: Receptor Affinities D2 (% @ ( ) μM)): 48% | inhibition at 0.1 µM [1]: 95% | inhibition at 10 mg/kg (synthesis of dopamine; [2]): 42.9%

Nc1cccc(OCCCNC[C@H]2COc3ccccc3O2)c1 [Example 9, (S)-N-[3-(3-Aminophenoxy)propyl]-2,3-dihydro-1,4-benzodioxin-2-methanamine]
ED50 (mouse locomotor activity): 0.19 mg/kg | inhibition at 0.1 µM [1]: 100%

Nc1cccc(OCCCNCC2COc3cc4c(cc3O2)OCO4)c1 (centres unmarked) [Example 10, N-[3-(3-Aminophenoxy)propyl]-2,3-dihydro-6,7-methylenedioxy-1,4-benzodioxin-2-methanamine]
ED50 (mouse locomotor activity): 1.8 mg/kg | inhibition at 0.1 µM [1]: 54% | inhibition at 10 mg/kg (synthesis of dopamine; [2]): 70.9%

COc1cccc2c1OC(CNCCCOc1cccc(N)c1)CO2 (centres unmarked) [Example 11, N-[3-(3-Aminophenoxy)propyl]-2,3-dihydro-8-methoxy-1,4-benzodioxin-2-methanamine]
inhibition at 10 mg/kg (synthesis of dopamine; [2]): 13%

Nc1cccc(OCCCNCC2COc3cccc(O)c3O2)c1 (centres unmarked) [Example 12, N-[3-(3-Aminophenoxy)propyl]-2,3-dihydro-8-hydroxy-1,4-benzodioxin-2-methanamine]
inhibition at 10 mg/kg (synthesis of dopamine; [2]): 17.4%

Nc1cccc(OCCCNCC2COc3ccc(Cl)cc3O2)c1 (centres unmarked) [Example 13, N-[3-(3-Aminophenoxy)propyl]-2,3-dihydro-7-chloro-1,4-benzodioxin-2-methanamine]
inhibition at 10 mg/kg (synthesis of dopamine; [2]): 9.1%

COc1cc2c(cc1OC)OC(CNCCCOc1cccc(N)c1)CO2 (centres unmarked) [Example 14, N-[3-(3-Aminophenoxy)propyl]-2,3-dihydro-6,7-dimethoxy-1,4-benzodioxin-2-methanamine]
inhibition at 10 mg/kg (synthesis of dopamine; [2]): 53.7%

COc1ccc2c(c1OC)OCC(CNCCCOc1cccc(N)c1)O2 (centres unmarked) [Example 15, N-[3-(3-Aminophenoxy)propyl]-2,3-dihydro-5,6-dimethoxy-1,4-benzodioxin-2-methanamine]
inhibition at 10 mg/kg (synthesis of dopamine; [2]): 7.6%

Nc1cccc(OCCCNCC2COc3ccc(F)cc3O2)c1 (centres unmarked) [Example 16, N-[3-(3-Aminophenoxy)propyl]-2,3-dihydro-7-fluoro-1,4-benzodioxin-2-methanamine]
ED50 (mouse locomotor activity): 1.4 mg/kg | inhibition at 0.1 µM [1]: 87% | inhibition at 10 mg/kg (synthesis of dopamine; [2]): 59.9%

COc1ccc2c(c1)O[C@@H](CNCCCOc1cccc(N)c1)CO2 [Example 17, (S)-N-[3-(3-Aminophenoxy)propyl]-2,3-dihydro-7-methoxy-1,4-benzodioxin-2-methanamine]
inhibition at 10 mg/kg (synthesis of dopamine; [2]): 28%

Cc1c(O)ccc2c1OC(CNCCCOc1cccc(N)c1)CO2 (centres unmarked) [Example 19, N-[3-(3-Aminophenoxy)propyl]-2,3-dihydro-7-hydroxy-8-methyl-1,4-benzodioxin-2-methanamine]
inhibition at 10 mg/kg (synthesis of dopamine; [2]): 21%

O=C1CC2(CCCC2)CC(=O)N1CCCCNCC1COc2ccccc2O1 (centres unmarked) [MDL 72832, 8-[4-(1,4-benzodioxan-2-ylmethylamino)butyl]-8-azaspiro[4.5]decane-7,9-dione]
5-HT1A receptor ligand character (5-HT1A receptor; in words, Fozard et al.): selective and stereospecific

O=C1CC2(CCCC2)CC(=O)N1CCCCN1CCN(c2ncccn2)CC1 [buspirone]
affinity for the 5-HT1A serotonin receptor subtype (5-HT1A receptor; in words, standard for anxiolytic activity): potent affinity
